Measurements: paper PMC8161391, “Synthesis of Novel Fluorinated Xanthine Derivatives with High Adenosine A2B Receptor Binding Affinity” (Pharmaceuticals, 2021)
Where “and” joins values, the source holds several entries; their conditions need not be identical. Equal values may be shown once. Read-outs that look alike come from different tables or passages of the source.

Tests used:
[1] = biological target: T1, human adenosine A3 receptor (Homo sapiens, UniProt P0DMS8); test: Competition binding assay, A3 receptor, radioligand [3H]PSB-11; details: for Selectivity Ratio Ki(Ax)/Ki(A2B) A3/A2B: human receptors; for inhibition at 1 µM / Ki: human receptor; for inhibition at 1 µM: at a concentration of 1 µM; for Ki: vs [3H]PSB-11, mean ± SEM of three experiments
T1 construct: host or cells: CHO or HEK cells (membrane preparations)
T1 sequence (P0DMS8 1-318): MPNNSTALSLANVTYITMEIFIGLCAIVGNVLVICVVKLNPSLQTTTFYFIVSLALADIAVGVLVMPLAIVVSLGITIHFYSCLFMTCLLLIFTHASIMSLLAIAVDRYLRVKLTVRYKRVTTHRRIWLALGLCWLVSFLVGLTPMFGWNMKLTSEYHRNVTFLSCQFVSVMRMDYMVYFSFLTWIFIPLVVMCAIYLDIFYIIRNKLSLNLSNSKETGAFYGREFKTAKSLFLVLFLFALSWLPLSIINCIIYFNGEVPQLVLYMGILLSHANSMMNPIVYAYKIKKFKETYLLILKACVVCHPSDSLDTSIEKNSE
Procedure: (§1) For the two novel fluorinated xanthine derivatives, the binding affinity towards the adenosine receptor subtypes A2B, A2A, A1, and A3 was determined in competition binding assays by incubation of the appropriate standard radioligand with membrane preparations of Chinese hamster ovary (CHO) and human embryonic kidney (HEK) cells, respectively, expressing the corresponding human receptor subtype (Table 2).
(§2) Membrane preparations of recombinant CHO or HEK cells expressing the respective human adenosine receptor subtype were obtained according to Borrman et al. or purchased from Perkin Elmer (Waltham, MA, USA). Radioligand binding assays for human A1, A2A, A2B, and A3 receptors were performed according to Alnouri et al.. The following radioligands were employed: [^3H]2-chloro-N^6-cyclopentyladenosine ([^3H]CCPA, 1 nM) for the A1 receptor, [^3H]3-(3-hydroxypropyl)-7-methyl-8-(m-methoxystyryl)-1-propargylxanthine ([^3H]MSX-2, 1 nM) for the A2A receptor, [^3H]8-(4-[4-(4-chlorophenyl)piperazine-1-sulfonyl]phenyl)-1-propyl-2,3,6,7-tetrahydro-1H-purine-2,6-dione ([^3H]PSB-603, 0.3 nM) for the A2B receptor, and [^3H](R)-8-ethyl-4-methyl-2-(phenyl)1,4,7,8-tetrahydro-5H-imidazo[2,1-i]purin-5-one ([^3H]PSB-11, 1 nM) for the A3 receptor. Three separate experiments were performed for determination of Ki values. All data were analyzed with GraphPad Prism, version 4.1 (GraphPad Inc., La Jolla, CA).

adenosine A2A receptor [2] = test: Receptor binding with adenosine-receptor-expressing rat brain cortical membranes, A2A; details: rat A2A versus human A2B, from published Ki values
adenosine A1 receptor [3] = test: Receptor binding with adenosine-receptor-expressing rat brain cortical membranes, A1; details: rat A1 versus human A2B, from published Ki values
adenosine A2A receptor [4] = biological target: adenosine A2A receptor; parameters: method as in PMID 19569717, PMID 30835463, PMID 16821798; details: rat brain cortical membranes; cited from earlier work
adenosine A1 receptor [5] = biological target: adenosine A1 receptor; parameters: method as in PMID 19569717, PMID 30835463, PMID 16821798; details: rat brain cortical membranes; cited from earlier work
[6] = biological target: T2, human adenosine A2B receptor (Homo sapiens, UniProt P29275); test: Competition binding assay, A2B receptor, radioligand [3H]PSB-603; details: vs [3H]PSB-603, mean ± SEM of three experiments
T2 construct: host or cells: CHO or HEK cells (membrane preparations)
T2 sequence (P29275 1-332): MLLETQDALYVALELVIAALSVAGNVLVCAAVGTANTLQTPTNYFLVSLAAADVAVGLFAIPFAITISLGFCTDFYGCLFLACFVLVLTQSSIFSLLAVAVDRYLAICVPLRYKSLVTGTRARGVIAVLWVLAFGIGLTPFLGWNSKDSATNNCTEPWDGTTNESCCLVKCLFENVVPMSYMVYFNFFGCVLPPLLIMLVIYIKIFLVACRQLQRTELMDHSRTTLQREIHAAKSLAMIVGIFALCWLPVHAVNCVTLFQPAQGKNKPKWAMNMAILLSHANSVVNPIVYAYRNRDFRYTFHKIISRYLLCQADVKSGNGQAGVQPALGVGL
Procedure: as §1, §2

[7] = biological target: T3, human adenosine A2A receptor (Homo sapiens, UniProt P29274); test: Competition binding assay, A2A receptor, radioligand [3H]MSX-2; details: for Ki: human receptor, vs [3H]MSX-2, mean ± SEM of three experiments; for Selectivity Ratio Ki(Ax)/Ki(A2B) A2A/A2B: human receptors
T3 construct: host or cells: CHO or HEK cells (membrane preparations)
T3 sequence (P29274 whole entry): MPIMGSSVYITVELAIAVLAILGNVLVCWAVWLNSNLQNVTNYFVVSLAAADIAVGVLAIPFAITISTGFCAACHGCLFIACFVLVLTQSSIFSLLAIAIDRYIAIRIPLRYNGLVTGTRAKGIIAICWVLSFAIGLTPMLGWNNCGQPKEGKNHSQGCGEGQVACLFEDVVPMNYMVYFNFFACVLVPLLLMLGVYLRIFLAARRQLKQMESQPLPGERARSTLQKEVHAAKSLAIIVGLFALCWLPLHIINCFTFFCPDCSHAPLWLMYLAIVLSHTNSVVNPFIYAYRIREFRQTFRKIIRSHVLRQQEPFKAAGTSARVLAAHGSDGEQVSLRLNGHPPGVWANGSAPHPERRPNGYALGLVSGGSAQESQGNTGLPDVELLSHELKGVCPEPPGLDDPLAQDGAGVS
Procedure: as §1, §2

[8] = biological target: T4, human adenosine A1 receptor (Homo sapiens, UniProt P30542); test: Competition binding assay, A1 receptor, radioligand [3H]CCPA; details: for Ki: vs [3H]CCPA, mean ± SEM of three experiments; for Selectivity Ratio Ki(Ax)/Ki(A2B) A1/A2B: human receptors
T4 construct: host or cells: CHO or HEK cells (membrane preparations)
T4 sequence (P30542 1-326): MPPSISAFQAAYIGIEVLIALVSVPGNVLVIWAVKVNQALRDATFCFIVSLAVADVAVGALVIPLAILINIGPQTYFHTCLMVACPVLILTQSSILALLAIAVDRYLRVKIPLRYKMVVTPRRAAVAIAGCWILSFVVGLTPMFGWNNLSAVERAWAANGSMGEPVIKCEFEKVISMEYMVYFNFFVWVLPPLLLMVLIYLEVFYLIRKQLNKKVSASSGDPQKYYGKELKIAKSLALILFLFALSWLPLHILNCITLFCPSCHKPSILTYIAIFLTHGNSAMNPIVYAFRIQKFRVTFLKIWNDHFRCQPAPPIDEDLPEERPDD
Procedure: as §1, §2

human A2B [9] = biological target: human A2B; parameters: method as in PMID 16759111; details: determined versus [3H]ZM214385; read-out: Ki (human A2B) ± SEM; cited from earlier work
human A2B [10] = details: determined versus [3H]ZM214385 or [125I]IABOPX; read-out: Ki (human A2B) ± SEM; cited from earlier work
[11] = biological target: T1, human adenosine A3 receptor; parameters: method as in PMID 19569717, PMID 30835463, PMID 16821798; details: cited from earlier work; for % Inhibition of Radioligand Binding A3: at a concentration of 1 µM (as headed)
adenosine A2B receptor = details: cited from earlier work
[12] = cited from earlier work
[13] = biological target: T3, human adenosine A2A receptor; parameters: method as in PMID 19569717, PMID 30835463, PMID 16821798; details: cited from earlier work
[14] = biological target: T4, human adenosine A1 receptor; parameters: method as in PMID 19569717, PMID 30835463, PMID 16821798; details: cited from earlier work
[15] = parameters: method as in PMID 32366046; details: cited from earlier work
[16] = Organ distribution of [3H]PSB-603 in mice; type: in vivo, CD-1 mice; details: 3 min p.i.
Procedure: To estimate the ability of [^3H]PSB-603 to penetrate the BBB in vivo, an initial biodistribution study in healthy CD1 mice was performed.
All animal studies followed the international guidelines on animal care, and the study protocols were approved by the Landesdirektion Leipzig, the local authority for animal care (Reg.-Nr.: TVV 08/13; Reference number: 24-9168.11/18/8; approval date: 12 June 2013). Animal experiments were performed with female CD-1 mice, 10–12 weeks old, obtained from the Experimental Centre of the Faculty of Medicine (MEZ) at the Leipzig University, Leipzig, Germany.
[^3H]PSB-603 (specific activity 2.92 TBq/mmol, Pharmaron formerly Quotient Bioresearch (Radiochemicals) Ltd, Cardiff, UK; the precursor was synthesized at the University of Bonn, Germany) was dissolved in 100 µL of sterile isotonic saline and administered as a bolus injection via the tail vein of the restrained animal. At 3 min (n = 3; dose: […]), retro-orbital blood samples were obtained from the anesthetized animals. Immediately afterwards, organs of interest were isolated and blood plasma was obtained by centrifugation of the whole blood sample (15,000 rpm, room temperature, 1 min). All samples were weighed and dissolved in SOLVABLE (PerkinElmer Life and Analytical Sciences, Rodgau, Germany) for 5 h at 50 °C, overnight at 30 °C, and a further 5 h at 50 °C. By adding H2O2, decolorization of the samples was achieved. The samples were left to cool down to room temperature before the addition of 15 mL of Ultima Gold cocktail (PerkinElmer Life and Analytical Sciences, Rodgau, Germany). The samples were shaken overnight, and the radioactivity was measured in a Beckman Liquid Scintillation Counter LS 6500 (Beckman Coulter, Fullerton, CA, USA). For each sample, the percentage of the injected dose was calculated and normalized according to the tissue weight (% ID/g tissue), followed by normalization according to the injected dose and the weight of the animal [(% ID/g tissue)/(100%/g animal)] to calculate the standardized uptake value (SUV) for each tissue.

[17] = at a concentration of 1 µM (as headed)

CCCn1c(=O)[nH]c2nc(-c3ccc(S(=O)(=O)N4CCCCC4)cc3)[nH]c2c1=O [Compound 8]
Selectivity Ratio Ki(Ax)/Ki(A2B) A3/A2B [1]: 7
Selectivity Ratio Ki(Ax)/Ki(A2B) A2A/A2B (adenosine A2A receptor [2]): 35
Selectivity Ratio Ki(Ax)/Ki(A2B) A1/A2B (adenosine A1 receptor [3]): 4
Ki (adenosine A2A receptor [4]): 714 ± 122 nM
Ki (adenosine A1 receptor [5]): 91.1 ± 25 nM

CCCn1c(=O)[nH]c2nc(-c3ccc(S(=O)(=O)N4CCC(F)CC4)cc3)[nH]c2c1=O [Compound 6, 8-(4-((4-Fluoropiperidin-1-yl)sulfonyl)phenyl)-1-propyl-3,7-dihydro-1H-purine-2,6-dione]
Ki [6]: 12.3 ± 3.6 nM
Ki [7]: 158 ± 28 nM
Selectivity Ratio Ki(Ax)/Ki(A2B) A2A/A2B [7]: 13
inhibition at 1 µM ([8]; human receptor, at a concentration of 1 µM): 44%
Ki ([8]; human receptor): ~1000 nM
Selectivity Ratio Ki(Ax)/Ki(A2B) A1/A2B [8]: 81
inhibition at 1 µM [1]: 38%
Ki [1]: > 1000 nM
Selectivity Ratio Ki(Ax)/Ki(A2B) A3/A2B [1]: >81

Cn1c(=O)c2[nH]c(-c3cnn(Cc4cccc(C(F)(F)F)c4)c3)nc2n(C)c1=O [CVT-6975]
Ki (human A2B [9]): 1 nM

CCCn1c(=O)c2[nH]c(-c3ccc(OCC(=O)Nc4ccc(C#N)cc4)cc3)nc2n(CCC)c1=O [MRS-1754]
Ki (human A2B [10]): 1.97 ± 0.31 nM

CCCn1c(=O)[nH]c2nc(-c3ccc(S(=O)(=O)Nc4ccccc4)cc3)[nH]c2c1=O [Compound 7]
Selectivity Ratio Ki(Ax)/Ki(A2B) A3/A2B [1]: >32
Selectivity Ratio Ki(Ax)/Ki(A2B) A2A/A2B (adenosine A2A receptor [2]): 0.7
Selectivity Ratio Ki(Ax)/Ki(A2B) A1/A2B (adenosine A1 receptor [3]): 0.06
% Inhibition of Radioligand Binding A3 [11]: 48%
Ki [11]: > 1000 nM
Ki (adenosine A2A receptor [4]): 23 ± 13 nM
Ki (adenosine A1 receptor [5]): 1.8 ± 1 nM

O=C(Nc1cnc(-c2ccnc([18F])c2)c(-c2ccccc2F)n1)C1CC1 [Compound 2]
affinity towards the adenosine A2B receptor (in words) (adenosine A2B receptor): good affinity
metabolic degradation in vivo (in words) ([12]; metabolism studies in mice): rapid metabolic degradation

CCCn1c(=O)[nH]c2nc(-c3ccc(S(=O)(=O)N4CCN(c5ccc(Cl)cc5)CC4)cc3)[nH]c2c1=O [PSB-603, 8-(4-[4-(4-chlorophenyl)piperazine-1-sulfonyl]phenyl)-1-propyl-2,3,6,7-tetrahydro-1H-purine-2,6-dione]
Selectivity Ratio Ki(Ax)/Ki(A2B) A2A/A2B [7]: >18,000
Selectivity Ratio Ki(Ax)/Ki(A2B) A1/A2B [8]: >18,000
Selectivity Ratio Ki(Ax)/Ki(A2B) A3/A2B [1]: >18,000
% Inhibition of Radioligand Binding A2A [13, 17]: 7 ± 14%
Ki [13]: > 10000 nM
% Inhibition of Radioligand Binding A1 [14, 17]: 10 ± 3%
Ki [14]: > 10000 nM
% Inhibition of Radioligand Binding A3 [11]: 10 ± 15%
Ki [11]: > 10000 nM

O=c1[nH]c(=O)c2cc(-c3ccnc([18F])c3)c(-c3ccco3)nc2[nH]1 [Compound 3]
affinity towards the A2B receptor (in words) (adenosine A2B receptor): good affinity
in vivo stability (in words) ([12]; compared to 2): considerably improved in vivo stability
brain uptake (in words) [15]: rather low

[^3H]8-(4-[4-(4-chlorophenyl)piperazine-1-sulfonyl]phenyl)-1-propyl-2,3,6,7-tetrahydro-1H-purine-2,6-dione [[^3H]PSB-603]
uptake in the bladder, appendix, and lung ([16]; mice): low to moderate
uptake in the liver ([16]; mice): high
uptake in the pituitary gland ([16]; mice): moderate
standardized uptake value (SUV) in brain ([16]; mouse brain, i.v., n = 3): 0.21 ± 0.07 and 0.2

CCCn1c(=O)[nH]c2nc(-c3ccc(S(=O)(=O)Nc4ccnc(F)c4)cc3)[nH]c2c1=O [Compound 5, 4-(2,6-Dioxo-1-propyl-2,3,6,7-tetrahydro-1H-purin-8-yl)-N-(2-fluoropyridin-4-yl)benzenesulfonamide]
Ki [6]: 9.97 ± 0.86 nM
Ki [7]: 375 ± 53 nM
Selectivity Ratio Ki(Ax)/Ki(A2B) A2A/A2B [7]: 38
Ki ([8]; human receptor): 255 ± 32 nM
Selectivity Ratio Ki(Ax)/Ki(A2B) A1/A2B [8]: 25
inhibition at 1 µM [1]: 45%
Ki [1]: ~1000 nM

[11CH3]n1nc(-c2ccccc2)c(=O)n2c3ccccc3nc12 [Compound 1]
IC50 (adenosine A2B receptor): 210 ± 12.3 nM
